Tested on: MHC class I expression of T1 cell (human lymphoma line 174×CEM.)
Test: Effect on MHC class I expression of T1 cell (flow cytometry, MFI)
Format: cell-based
Conditions: 72 h, concentration inhibiting MHC class I molecule expression level by 20%, T1 cells, three days incubation, read-out: EC20
Procedure: T1 cells (5.7×10^3 cells/200 μL/well) were incubated using a 96-well flat bottom microplate in RPMI1640 culture medium (Iwaki Glass Corporation) containing 10% bovine serum (hereinafter referred to as FBS; Iruvine Scientific) in the presence of a test compound of each concentration diluted from 400 μM by a common ratio of root 10 at 37° C. in an incubator containing 5% carbon dioxide concentration for three days. After incubation, cells were stained with fluoroisothiocyanate labeled mouse antihuman MHC class I monoclonal antibody (antibody produced by cell strain W6/32 (ATCC No, CRL1991). Mean fluorescence intensity (hereinafter referred to as MFI) of stained cells was measured with flow cytometry FACScan (BD), and this was assumed as MHC class I molecule expression level. Concentrations of the test compounds which inhibited the expression level of MHC class I molecule by 20% (EC20 value) were calculated from the following Expression (1), which are shown in Table 1. [formula]

Q: O=C(Nc1nc2nccc(-c3cccs3)n2n1)C1C2CC3C(C2=O)C31 (stereo not drawn) [Example 026] was tested. Which IC20 did it give?
A: 8.8 µM

Q: How did the IC20 turn out when O=C(CC1CCCC1)Nc1nc2nccc(-c3cccs3)n2n1 [Example 016] was run?
A: 9.7 µM

Q: For CNc1nc2nccc(-c3cccs3)n2n1 [Example 001, N-methyl-7-thiophene-[1,2,4]triazolo[1,5-a]pyrimidin-2-ylamine], which IC20 is on record?
A: 6 µM

Q: For O=C(/C=C\Sc1ccccc1)Nc1nc2nccc(-c3cccs3)n2n1 [Example 020], which IC20 is on record?
A: 5.3 µM

Q: Which IC20 does the source give for CCC(NC(=O)OC(C)(C)C)C(=O)Nc1nc2nccc(-c3cccs3)n2n1 [Example 047, (S)-(1-(7-thiophen-2-yl-triazolo[1,5-a]-pyrimidin-2-ylcarbamoyl)propyl)carbamic acid tert-butyl ester] here?
A: 7.3 µM

Q: Which IC20 does the source give for CC1(C)CC(=O)C=C(C(=O)Nc2nc3nccc(-c4cccs4)n3n2)O1 [Example 028, 6,6-dimethyl-4-oxo-5,6-dihydro-4H-pyran-2-carboxylic acid N-(7-thiophen-2-yl-[1,2,4]triazolo[1,5-a]pyrimidin-2-yl)amide] here?
A: 7.7 µM

Q: COc1cccc(-c2ccnc3nc(NC(=O)OC(C)(C)C)nn23)c1 [Example 008] was tested. Which IC20 did it give?
A: 7.5 µM

Q: With COc1ccc(-c2ccnc3nc(NC(=O)CCS(=O)(=O)c4ccccc4)nn23)cc1 [Example 056, 3-benzenesulfonyl-N-(7-(4-methoxyphenyl)-[1,2,4]triazolo[1,5-a]pyrimidin-2-yl)propionamide] as the molecule, how does the IC20 read?
A: 0.74 µM

Q: For COc1ccc(-c2ccnc3nc(NC(C)=O)nn23)cc1 [Example 052], which IC20 is on record?
A: 6.8 µM

Q: For COc1cccc(-c2ccnc3nc(NC(=O)CCS(=O)(=O)c4ccccc4)nn23)c1 [Example 054, 3-benzenesulfonyl-N-(7-(3-methoxyphenyl)-[1,2,4]triazolo[1,5-a]pyrimidin-2-yl)propionamide], which IC20 is on record?
A: 4 µM

Q: CC(C)(C)OC(=O)Nc1nc2nccc(-c3ccc([N+](=O)[O-])cc3)n2n1 [Example 009] was tested. Which IC20 did it give?
A: 7.2 µM

Q: With CC(=O)C1CC(CC(=O)Nc2nc3nccc(-c4cccs4)n3n2)C1(C)C (stereo not drawn) [Example 013] as the molecule, how does the IC20 read?
A: 8.2 µM

Q: CC(C)[C@H](N)C(=O)Nc1nc2nccc(-c3cccs3)n2n1 [Example 040] was tested. Which IC20 did it give?
A: 8.4 µM

Q: CC(C)(C)OC(=O)Nc1nc2nccc(-c3ccccc3)n2n1 [Example 007] was tested. Which IC20 did it give?
A: 6.25 µM

Q: How did the IC20 turn out when CC(C)=CC(=O)Nc1nc2nccc(-c3cccs3)n2n1 [Example 015] was run?
A: 9.2 µM

Q: Which IC20 does the source give for O=C(CCS(=O)(=O)c1ccccc1)Nc1nc2nccc(-c3cccs3)n2n1 [Example 022, 3-benzenesulfonyl-N-(7-thiophene[1,2,4]triazolo[1,5-a]pyrimidin-2-yl)propionamide] here?
A: 8.2 µM

Q: How did the IC20 turn out when CC(C)(C)OC(=O)NC(CSCc1ccccc1)C(=O)Nc1nc2nccc(-c3cccs3)n2n1 (stereo not drawn) [Example 036] was run?
A: 7.1 µM

Q: For O=C(CCS(=O)(=O)c1ccccc1)Nc1nc2nccc(-c3ccccc3)n2n1 [Example 055], which IC20 is on record?
A: 1.6 µM

Reference: US20070129383A1, “Substituted 2-amino-[1,2,4]triazolo[1,5-a]pyrimidine derivative and use thereof” (priority 2003, published 2007)
